Source: patent publication US11413321B2, “Pharmaceutical composition for use in increasing hair, modifying scalp or skin, healing a wound, promoting osteogenesis, or modifying hair” (priority 2017, dated 2022)

Assays:
Type in all cases: in vivo, Wistar rat
CD68-positive cells = test: Immunohistological staining of rat dorsal skin after injection of fatty acids (CD68); conditions: 1 mg fatty acid in 20 μL per location
Protocol: (§1) Next, representative fatty acids contained in milk were administered to a 12-week-old Wistar rat at a plurality of locations on the dorsal skin as in Example 1(2) above, and a change in tissues by the administration was observed after the tissues were subjected to immunohistological staining. More specifically, physiological saline was administered in an amount of 20 μL per location, an administration liquid containing 1 mg of a fatty acid was administered in an amount of 20 μL per location, and a change in CD68-positive macrophage stained images and PPAR-γ-positive cell images by the administration was observed. Samples of the Wistar rat were obtained by sampling administration sites (four weeks after administration and eight weeks after administration). FIGS. 10A to 10G show the results. […] At saturated fatty acid injection sites, infiltration of a large number of CD68-positive cells was observed, and fibrillization of normal tissues was observed. Therefore, in FIGS. 10B to 10D, a change in fat tissues was examined at a location which was closest to the administration site and where normal tissues were maintained (non-fibrillization location).

CD34 = test: Quantitative PCR of dorsal tissues after subcutaneous administration (CD34); conditions: 20 μL per location into rat dorsal part; vs control without administration; FIG. 15
Protocol: (§2) 5.) CD34, Rattus norvegicus: CD34 molecule (Cd34), mRNA 1,161 bp NM 001107202.2 GI: 169790781 Next, a change in gene expression in tissues was examined. Three regions were set between the head and the tail of the dorsal part of a 12-week-old Wistar rat (male), and each region was divided between the left and the right of the backbone into two regions to set a total of six regions on the dorsal part. Milk or palmitic acid was injected in an amount of 20 μL per location at two locations in the vicinity of the center of each region. The distance between the two locations was 1 cm. The collected tissue fragments were frozen with liquid nitrogen, and stored at −80° C. […] Analysis of gene expression by quantitative PCR was performed in the following manner: Integrated DNA technologies, Inc (Skokie, Ill., USA) was requested to design and synthesize gene-specific primers and probes, and using PrimeTime Gene Expression Master Mix Reagent (Integrated DNA Technologies, Inc, Skokie, Ill., USA) and Rotor-Gene Q PCR Apparatus (QIAGEN GmbH, Hilden, Germany), PCR analysis was performed twice per gene per specimen to analyze the expression level of a target gene. […]

PPAR-γ-positive cells = test: Immunohistological staining of rat dorsal skin after injection of fatty acids (PPAR-γ); conditions: 1 mg fatty acid in 20 μL per location
Protocol: as §1

Cxcl12 = test: Quantitative PCR of dorsal tissues after subcutaneous administration (Cxcl12); conditions: 20 μL per location into rat dorsal part; vs control without administration; FIG. 15
Protocol: as §2, with “2.) C—X—C motif chemokine ligand 12 (Cxcl12), transcript variant 1,” for “5.) CD34,”, “norvegicus:” for “norvegicus: CD34 molecule (Cd34),”, “1,880” for “1,161”, “022177.3” for “001107202.2”, “7649650” for “169790781”

[1] = eight weeks after administration

For CCCCCCCCCCCCCCCC(=O)O [palmitic acid], the “number of CD68-positive cells at the administration site” value (CD68-positive cells; [1]) was “maintained”, the “number of CD68-positive cells at the administration site” value (CD68-positive cells; four weeks after administration, vs physiological saline) was “increased” and the “CD34 gene expression in tissues” value (CD34) was “increase”. The “increase in the number of PPAR-γ-positive cells at the administration site” value (PPAR-γ-positive cells; [1]) was “maintained”, the “number of PPAR-γ-positive cells at the administration site” value (PPAR-γ-positive cells; four weeks after administration, vs physiological saline, FIGS. 10B-10G) was “increased” and the “expression level of Cxcl12 in tissues” value (Cxcl12) was “greatly increased”.
